Results from BindingDB's records for doi:10.1016/j.bmcl.2017.07.010 (De Montfort University, 2017).
pEC50: −log10 of the molar value.

Assay: Inhibition of human CYP1B1 transfected in HEK293 cells assessed as cisplatin EC50 at 6 times IC50 by MTT assay (Rvb = 65 uM)

SMILES	pEC50
O=C(/C=C/c1ccccc1Cl)c1ccc[nH]1	5.00
COc1ccccc1/C=C/C(=O)c1ccc[nH]1	5.00
